Experimental data as given in patent US7022716B2, “Cyclic amine phenyl beta-3 adrenergic receptor agonists” (Wyeth, priority 2000, dated 2006).

Assays:
β3 Knockout(KO) Mice = experiment: Thermogenesis (Oxymax indirect calorimetry) in β3 knockout mice; settings: percent increase in thermogenesis over baseline; female FVB β3 knockout mice; i.p. 0.1-20 mg/kg or oral 1.0-30 mg/kg
β3 Transgenic(Tg) Mice = experiment: Thermogenesis (Oxymax indirect calorimetry) in β3 transgenic mice; settings: percent increase in thermogenesis over baseline; female FVB β3 transgenic mice; i.p. 0.1-20 mg/kg or oral 1.0-30 mg/kg
[1] = target: T1, human β3 adrenergic receptor (Homo sapiens, UniProt P13945); experiment: cAMP (SPA) response in CHO cells transfected with human β3 adrenergic receptor; format: cell-based; set-up: key: fraction of maximal isoproterenol (10^-5 M) response; settings: maximal response relative to maximal response of isoproterenol at 10^-5 M
T1 construct: Full length β3 AR clones (402 amino acids) containing the last 6 amino acids of hβ3-AR are prepared; expressed in transfected cells; host or cells: CHO (Chinese hamster ovary) cells
T1 sequence (P13945 whole entry): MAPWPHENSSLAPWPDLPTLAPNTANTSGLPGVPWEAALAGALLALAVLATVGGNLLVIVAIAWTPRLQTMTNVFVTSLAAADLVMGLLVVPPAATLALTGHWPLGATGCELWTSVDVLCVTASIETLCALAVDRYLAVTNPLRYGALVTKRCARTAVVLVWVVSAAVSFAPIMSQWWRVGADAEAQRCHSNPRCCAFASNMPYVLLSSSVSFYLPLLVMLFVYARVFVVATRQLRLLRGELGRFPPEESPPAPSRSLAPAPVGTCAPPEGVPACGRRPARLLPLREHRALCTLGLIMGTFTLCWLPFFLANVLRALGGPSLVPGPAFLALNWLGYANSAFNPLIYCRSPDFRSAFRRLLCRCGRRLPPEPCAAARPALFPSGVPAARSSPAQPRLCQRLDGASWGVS
In short: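 Reactions were stopped with 0.2N HCl and neutralised, and cAMP was measured by SPA. Activity is expressed as percent of the maximal 10^−5 M isoproterenol response.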

Row | SMILES | melting point | Thermogenesis (KO mice) (β3 Knockout(KO) Mice) [%] | Thermogenesis (Tg mice) (β3 Transgenic(Tg) Mice) [%] | IA(β3) [1]
1 | CS(=O)(=O)Nc1cc(C(O)CNC2CCN(c3ccc(CC4SC(=O)NC4=O)cc3)CC2)ccc1O [Example 84, N-[5-((2R)-2-{1-[4-(2,4-Dioxo-thiazolidin-5-ylmethyl}-phenyl]-piperidin-4-ylamino}-1-hydroxy-ethyl)-2-hydroxy-phenyl]-methanesulfonamide] | > 180 °C (dec.) | −2 ± 4 | 30 ± 4 | –
2 | CCOC(=O)c1ccc(N2CCC(NC[C@H](O)c3ccc(O)c(NS(C)(=O)=O)c3)CC2)cc1 [Example 180, {4-[(2R)-2-Hydroxy-2-(4-hydroxy-3-methanesulfonylamino-phenyl)-ethylamino]-piperidin-1-yl}-benzoic acid ethyl ester] | – | 9 ± 5 | 42 ± 4 | 1
3 | CS(=O)(=O)Nc1cc([C@@H](O)CNC2CCN(c3ccc(C(=O)O)cc3)CC2)ccc1O [Example 186, 4-{4-[(2R)-2-Hydroxy-2-(4-hydroxy-3-methanesulfonylamino-phenyl)-ethylamino]-piperidin-1-yl}-benzoic acid] | > 85 °C (dec.) | 16 ± 7 | 77 ± 12 | 1.1
4 | CCOC(=O)C(=Cc1ccc(N2CCC(NC[C@H](O)c3ccc(O)c(NS(C)(=O)=O)c3)CC2)cc1)C(=O)O [Example 189, 2-(4-{4-[(2R)-2-Hydroxy-2-(4-hydroxy-3-methanesulfonylamino-phenyl)-ethylamino]-piperidin-1-yl}-benzylidene)-malonic acid monoethyl ester] | > 170 °C (dec.) | 6 ± 3 | 33 ± 7 | 1.3
5 | O=C(CCC1CCCC1)Nc1ccc(N2CCC(NC[C@H](O)COc3cccc4[nH]c(=O)[nH]c34)CC2)cc1 [Example 392, 3-Cyclopentyl-N-{4-[4-({(2S)-2-hydroxy-3-[(2-oxo-2,3-dihydro-1H-benzimidazol-4-yl)oxy]propyl}amino)-1-piperidinyl]phenyl}propanamide] | 140 to 144 °C | – | – | 0.9
6 | CS(=O)(=O)Nc1cc([C@@H](O)CNC2CCN(c3ccc(NC(=O)CCC4CCCC4)cc3)CC2)ccc1O [Example 393, 3-Cyclopentyl-N-(4-{4-[((2R)-2-hydroxy-2-{4-hydroxy-3-[(methylsulfonyl)amino]phenyl}-ethyl)amino]-1-piperidinyl}phenyl)propanamide] | 82 to 90 °C | – | – | 1
7 | CS(=O)(=O)Nc1cc([C@@H](O)CNC2CCN(c3ccc(NC(=O)c4ccc5c(c4)OCO5)cc3)CC2)ccc1O [Example 394, N-(4-{4-[((2R)-2-Hydroxy-2-{4-hydroxy-3-[(methylsulfonyl)amino]phenyl}ethyl)amino]-1-piperidinyl}phenyl)-1,3-benzodioxole-5-carboxamide] | 104 to 113 °C | – | – | 1.3
